In patent US6908904B2, “Pharmaceutical preparation and method for treatment of diabetes” (priority 2000, dated 2005):

Columns and labels:
[1] = uptake of radiolabeled sulfatide analogues in pancreas after intraperitoneal injection; type: in vivo; conditions: 150 nmol i.p., ob/ob mice, FIG. 6B; for degradation or accumulation in pancreas, 6 h vs 24 h: 6 h and 24 h after i.p.; for uptake in pancreas: tritium-labeled, scintillation counting
Excerpt: (§1) Native sulfatide isolated from pig brain and structurally characterized by mass spectrometry was modified with regard to the fatty acid composition and tritiated in the sphingosine base. These analogues were administrated intraperitoneally to diabetic ob/ob mice and their uptake in liver and pancreas analyzed after lipid extraction of dissected organs. The aim was to explore whether the exogenously administrated sulfatide was taken up by pancreas and thereby open a possibility to substitute for the quantitative and qualitative alterations of sulfatide seen in the diabetes type 2 models.
(§2) Sulfatide was tritium labeled in the ceramide portion by catalytic hydrogenation with Pd(OAc)2/NaB^3H4. The labeled sulfatide was mixed with unlabelled sulfatide to the required specific activity.
(§3) The fatty acid was removed from native pig brain sulfatide by weak alkaline methanolysis at 80° C. The formed lysosulfatide was, after chromatographic purification, reacylated with respective fatty acid chloride in aqueous sodium acetate-tetrahydrofuran.
(§4) These mice were 12 weeks old and the mean value of the highest blood glucose was […]. At sacrifice the mice were anaesthetized with CO2 and killed by dislocation of the neck vertebrae. This is outlined in Table 2. The liver and pancreas were dissected immediately. The organ were quick-frozen and thawed at analyses (within 4 days).
(§5) The organs were homogenized and the lipids extracted with chloroform/methanol/water. The lipid extracts were evaporated, re-dissolved in chloroform/methanol/water and separated by silica gel chromatography to remove other lipids. The sulfatide containing fraction was used for counting by scintillation.
(§6) The results of the scintillation measurement are presented in FIG. 6A and FIG. 6B—FIG. 6A presenting liver data and FIG. 6B pancreas data—as cpm uptake in total, cpm/mg wet weight of tissue, cpm/mg of tissue protein and % of given cpm residing in the organ

[2] = uptake of radiolabeled sulfatide analogues in liver after intraperitoneal injection; type: in vivo; conditions: 150 nmol i.p., ob/ob mice, FIG. 6A; for degradation or accumulation in liver, 6 h vs 24 h: 6 h and 24 h after i.p.; for uptake in liver: tritium-labeled, scintillation counting
Excerpt: as §1, §2, §3, §4, §5, §6

[3] = test system: T-cell response to insulin; assay: T-cell response to insulin; type: cell-based; conditions: sulfatide in combination with insulin
Excerpt: The fact that sulfatide is processed through the same intracellular route as insulin further supports the findings according to the invention. Sulfatide is involved in normal processing of insulin, from proinsulin to secreted monomeric insulin. It is involved in the folding and oxidation of proinsulin, and is thus required for insulin formation, it is involved in the preservation of insulin crystals in secretory granules, and is thus required for the storage of the insulin pool, prevents deterioration and fibril formation, and it is involved in the transformation of insulin from hexamer via dimer to monomer form at secretion, and this last conversion to monomer is required for biological activity. Furthermore, sulfatide might be needed in combination with insulin in order to affect the insulin receptors in a proper way and to avoid development of insulin resistance.

[4] = further uptake study of sulfatide analogues in pancreas (Example 3); type: in vivo; conditions: i.p., ob/ob mice; FIGS. 7-10
Experimental: These experiments were performed as in Example 3, but only the uptake in pancreas was studies.
ob/ob mice was thus given C12, C14, C16 och C18 analogues of sulfatide intraperitoneally in the way described above.
The results are illustrated in FIGS. 7-10.

insulin crystals = assay: in vitro preservation of insulin crystals stored with sulfatide isoforms; conditions: compared to C24:0 analogue, native pig brain sulfatide and insulin stored without sulfatide, FIG. 5
Excerpt: The preservation of insulin crystals, a requirement for storage of an insulin pool that can be released upon raised blood glucose, is increased for sulfatide C16:0 compared to other sulfatide isoforms. […] This is illustrated in FIG. 5.

[5] = listed as C16:0 sulfatide analogue

Compound | degradation or accumulation in pancreas, 6 h vs 24 h [1] | degradation or accumulation in pancreas, 6 h vs 24 h ([1]; listed as C24) | uptake in pancreas [1] | degradation or accumulation in liver, 6 h vs 24 h [2] | uptake in liver [2] | degradation or accumulation in pancreas, 6 h vs 24 h ([1]; listed as C8:0) | uptake in liver ([2]; listed as C8:0) | T-cell response to insulin [3] | uptake in pancreas (Example 3) [4] | degradation or accumulation in pancreas, 6 h vs 24 h ([1]; listed as C 16) | degradation or accumulation in pancreas, 6 h vs 24 h [1, 5] | uptake in pancreas ([1]; listed as C16) | uptake in pancreas [1, 5] | preservation of insulin crystals (insulin crystals) | preservation of insulin crystals (insulin crystals; listed as isoform of sulfatide with 16 carbon atoms in the fatty acid)
CCCCCCCCCCCCC/C=C/[C@@H](O)[C@H](CO[C@@H]1O[C@H](CO)[C@H](O)[C@H](OS(=O)(=O)O)[C@H]1O)NC(=O)CCCCCCCCCCCCCCCCCCCCCCC [C24:0 analogue] | slight reduction | slight degradation | efficiently taken up in pancreas | slight reduction | lower uptake in liver as compared to the C8:0 analogue | – | – | – | – | – | – | – | – | – | –
CCCCCCCCCCCCC/C=C/[C@@H](O)[C@H](CO[C@@H]1O[C@H](CO)[C@H](O)[C@H](OS(=O)(=O)O)[C@H]1O)NC(=O)CCCCCCC [C8:0 analogue] | neither accumulation or degradation was noticed | – | much lower than for the other two analogues | rapidly degraded | preferentially taken up in liver | no accumulation | rapidly removed from circulation to the liver and degraded | – | – | – | – | – | – | – | –
galactosylceramide-3-O-sulfate [sulfatide] | – | – | – | – | – | – | – | inhibited the T-cell response to insulin | – | – | – | – | – | – | –
CCCCCCCCCCCCC/C=C/[C@@H](O)[C@H](CO[C@@H]1O[C@H](CO)[C@H](O)[C@H](OS(=O)(=O)O)[C@H]1O)NC(=O)CCCCCCCCCCCCCCC [C16:0 analogue] | – | – | – | slight accumulation | higher than for the C24:0 | – | – | – | most interesting results | accumulation | accumulation after 24 hours | efficiently taken up in pancreas | most efficiently taken up | significant effect on the preservation | significant effect on the preservation of insulin crystals
